Experimental data: patent publication US11903998B2, “Compositions and methods of treating cancer using lipid agonists and receptors thereof” (Forsyth Dental Infirmary for Children, priority 2016, dated 2024)
Read-outs that look alike come from different tables or passages of the source.

Experiments:
VEGF = VEGF expression in tumor tissue (immunohistochemistry and PCR); assay type: in vivo, mice; details: p<0.001
Method: (§1) In order to identify tumor cell proliferation and angiogenesis markers, the expression of Ki67 as a marker of proliferation and CD31, CD34 and VEGF as markers of vascularization was analyzed by immunohistochemistry. Briefly, 5 μm thick sections were de-paraffinized and rehydrated with serial alcohol solutions. Antigen retrieval was performed by incubating the sections in 10 mM sodium citrate (pH 6.0) in a microwave oven first for 5 min at 720 W, then 3 min at 450 W and finally 2 min at 180 W. Endogenous peroxidase activity was quenched by incubating the slides with 3% H2O2 (in methanol) for 20 minutes at 4° C. followed by blocking with 2% BSA for 30 minutes at room temperature. The sections were then incubated with antibodies to Ki67, CD31, CD34 and VEGF (1:100 dilution) overnight at 4° C. in a humidified chamber. Sections were incubated with ABC reagent VACTASTAIN Elite ABC Standard Kit (PK-6100). The immune reactions were visualized using 3,3-diaminobenzidine tetra hydrochloride (DAB). DAB-stained slides were counterstained lightly with hematoxylin. Slides were dehydrated and mounted with Permount for analysis. Images were acquired and analyzed using the Nikon Eclipse 80i microscope (Japan) and Northern Eclipse imaging Elements-D (NIS-D) software. The results are expressed as percent of total positive cells.
In order to analyze the impact of RvE1 on inflammation and angiogenesis, the expression of NF-κB, COX-2, VEGF, Ang-1 and Ang-2 was examined by quantitative real-time PCR. […] Quantification of RNA was determined using NanoDrop 1000 (Thermo Fisher Scientific, Wilmington, DE). […] For quantitative RT-PCR analysis, oligonucleotides for NF-κB, COX-2, VEGF, Ang-1, Ang-2 and GAPDH were chosen from predesigned assays. […] The fluorescence of the double-stranded products was monitored in real time. The cDNA was amplified and quantified using Sequence Detection System (SDS) 7000 (Applied Biosystems). The 2^(ΔΔCt) (Ct value of target gene minus Ct value of housekeeping gene) method was used to calculate relative quantity fold-change. […]

IL-8 = experiment: Multiplex bead array cytokine level in tumor tissue; assay type: in vivo, mice; details: RvE1 pre-treatment, mean ± SEM
Method: (§2) Inflammation is driven by soluble factors that are produced by tumor cells and by the cells recruited to the tumor microenvironment. […] Cytokine levels were measured using a multiplex bead array assay kit for Luminex purchased from Millipore to measure the following cytokines: G-CSF, IL-10, IL-6, IL-8, IL-12, TNF □, as per the manufacturer's instructions using a Luminex 100 instrument. Appropriate dilutions of the samples in assay diluent were made as required. Each sample was assayed in duplicate and cytokine standards supplied by the manufacturer were used to calculate the concentrations in the samples. Cytokine levels are expressed in pg/ml.

TNF-α = experiment: as above; assay type: in vivo, mice; details: RvE1 pre-treatment, mean ± SEM
Method: as §2

G-CSF = experiment: as above; assay type: in vivo, mice; details: RvE1 pre-treatment, mean ± SEM
Method: as §2

CD34 = experiment: Immunohistochemistry of tumor tissue, vascularization marker CD34; assay type: in vivo, mice
Method: as §1

COX2 = COX2 expression, orthotopic model of lung cancer; assay type: in vivo
CD31 = experiment: Immunohistochemistry of tumor tissue, vascularization marker CD31; assay type: in vivo; details: both Wt and Tg mice vs respective controls and vehicle groups
Method: as §1

Ang1 = experiment: Quantitative mRNA expression in tumor tissue (qPCR); assay type: in vivo, mice; details: p<0.001
Method: (§3) In order to analyze the impact of RvE1 on inflammation and angiogenesis, the expression of NF-κB, COX-2, VEGF, Ang-1 and Ang-2 was examined by quantitative real-time PCR. Total cellular RNA was extracted from tumor tissue (stored in RNAlater solution) using TriZol reagent. Quantification of RNA was determined using NanoDrop 1000 (Thermo Fisher Scientific, Wilmington, DE). RNA samples were stored at −80° C. until use. The first-strand cDNA was synthesized with High Capacity cDNA Archive kit (Applied Biosystems, Foster City, CA, USA) according to the manufacturer's instructions. For quantitative RT-PCR analysis, oligonucleotides for NF-κB, COX-2, VEGF, Ang-1, Ang-2 and GAPDH were chosen from predesigned assays. Thermal cycling included initial steps at 50° C. for 2 min and at 95° C. for 10 min, followed by 40 cycles at 95° C. for 15 s and at 60° C. for 1 min. The fluorescence of the double-stranded products was monitored in real time. The cDNA was amplified and quantified using Sequence Detection System (SDS) 7000 (Applied Biosystems). The 2^(ΔΔCt) (Ct value of target gene minus Ct value of housekeeping gene) method was used to calculate relative quantity fold-change. GAPDH was used as the housekeeping gene. The data is from 3 independent experiments performed in triplicate.

COX-2 [1] = experiment: as above; assay type: in vivo, mice; details: p<0.001
Method: as §3

NF-κB [2] = experiment: as above; assay type: in vivo, mice; details: p<0.001
Method: as §3

IL-6 = experiment: Multiplex bead array cytokine level in tumor tissue; assay type: in vivo; details: Wt mice, RvE1 pre-treatment, mean ± SEM
Method: as §2

IL-12 = experiment: as above; assay type: in vivo; details: Wt mice, RvE1 pre-treatment, mean ± SEM
Method: as §2

lung cancer [3] = experiment: RvE1 and cisplatin in xenograft model of lung cancer
lung cancer [4] = experiment: Orthotopic model of lung cancer, RvE1; assay type: in vivo
IL-1α = experiment: Multiplex bead array cytokine level in tumor tissue; assay type: in vivo; details: Wt mice, RvE1 pre-treatment, mean ± SEM
[5] = test system: LA-P0297 lung cancer cells; experiment: Histological analysis of tumor tissue (hematoxylin and eosin); assay type: in vivo, mice
Description: To examine the microscopic alterations in the tumor tissue, tissues were fixed in 10% formalin, paraffin embedded, sectioned (5 μm) and stained with hematoxylin and eosin. Images were photographed and enlarged for evaluation.

lung cancer [6] = details: mouse, in vivo
Ki67 = experiment: Immunohistochemistry of tumor tissue, proliferation marker; assay type: in vivo, mice
Method: as §1

[7] = test system: LA-P0297 lung cancer cells; assay type: in vivo, mice; details: for No tumor / Tumor developed (number of mice): total 6; for No tumor / Tumor developed (number of mice) / Necrosis: RvE1 pre-treatment; for Necrosis: cell wraps: Started on 18th day
Description: ERV1-transgenic mice (Tg) were engineered as previously described (Gao et al., 2013). In brief, the full-length of hCD11b promoter cDNA was cloned upstream of the full-length chemR23 cDNA (GenBank accession: www.ncbi.nlm.nih.gov/nuccore/NM_004072). For genotyping, genomic DNA was collected from ear punch biopsies of mice and screened by PCR with primers directed to mouse ERV1 (forward primer 5′-CTCGGTCTCCTAGGCAAC-3′) and human ERV1 (forward primer 5′-GTCTTCCTCCCAATCCAT-3′). The mouse and human ERV1 amplicons share the same reverse primer (5′-TAGAAAGCCAGGACCCAG-3′). FVB Wild type female mice (Wt) were purchased from Jackson Laboratories (Bar Harbor, ME). All animals were housed under specific pathogen-free conditions, received standard laboratory chow diet and water ad libitum. All animal experiments were approved by the Institutional Animal Care and Use Committee (IACUC) at the Forsyth Institute and were performed in conformance to the standards of the Public Health Service Policy on Humane Care and Use of Laboratory Animals. The animals were acclimatized before being used in the experimental study.
After one week of acclimatization, all animals received an injection of 1×10^6 LA-P0297 lung cancer cells subcutaneous in the right flank. Both Wt (n=18) and Tg (n=18) animals were randomly divided into 3 experimental groups: un-treated controls; 100 ng of RvE1 diluted in PBS injected intraperitoneal daily for the first 6 days and weekly thereafter for 3 weeks; vehicle, which was 5% ethanol diluted in PBS. RvE1 was stored in 100% ethanol and diluted in PBS immediately before use. RvE1 and vehicle were administered 30 minutes before the injection of cancer cells. Animals were checked routinely for body weight and growth of tumors on the skin. Tumor volume was measured using a Vernier caliper (Mitutoyo, Japan) and calculated using the following formula: V=½(L×W^2) where L=length and W=width. After 28 days, the animals were euthanized by CO2 asphyxia; tumor tissues were collected and stored for histological and molecular analyses.

NF-κB [8] = experiment: NF-κB expression, RvE1 and cisplatin xenograft model; assay type: in vivo, mice
Ang2 = experiment: Quantitative mRNA expression in tumor tissue (qPCR); assay type: in vivo; details: both Wt and Tg mice vs controls and vehicle groups, p<0.001
Method: as §3

COX-2 [9] = experiment: COX-2 expression, RvE1 and cisplatin xenograft model; assay type: in vivo, mice
COX-2 [10] = experiment: COX-2 expression, LXA4 xenograft model of lung cancer; assay type: in vivo; details: LXA4-treatment group
lung cancer [11] = experiment: LXA4 and xenograft model of lung cancer; assay type: in vivo
[12] = Tg mice vs control and vehicle animals
[13] = Wt mice vs control and vehicle animals
[14] = RvE1 added to cisplatin, WT and TG animals
[15] = cisplatin, WT and TG mice, p<0.001

CC[C@@H](O)/C=C/C=C\C[C@@H](O)/C=C/C=C/C=C\[C@@H](O)CCCC(=O)O [RvE1, Resolvin E1]
VEGF expression reduction (VEGF; [12]): 7 fold
VEGF expression reduction (VEGF; [13]): 5 fold
Decrease of VEGF expression, Tg mice compared to Wt mice treated with RvE1 (VEGF): more significant
IL-8 level in tumor tissue (IL-8; Tg mice): 692.61 pg/mL
IL-8 level in tumor tissue (IL-8; Wt mice): 2629.41 ± 263.3 pg/mL
TNF-α level in tumor tissue (TNF-α; Tg mice): 10.06 ± 2.1 ^¥¥ pg/ml
TNF-α level in tumor tissue (TNF-α; Wt mice): 13.23 pg/mL
G-CSF level in tumor tissue (G-CSF; Tg mice): 1156.31 pg/mL
G-CSF level in tumor tissue (G-CSF; Wt mice): 1624.28 ± 170.8 pg/mL
CD34 positive cells (CD34; both Wt and Tg mice vs respective controls and vehicle groups): significantly (p<0.001) reduced
Reduction of CD34 expression in tumor tissues, Tg animals vs Wt animals (CD34; p<0.01): significantly more
Reduction of the expression of COX2 (COX2; both groups (WT and TG)): 6 fold
Reduction of expression (printed in the COX2 sentence) (COX2; only in the TG animals): 6-7 fold
CD31 positive cells (CD31): significantly (p<0.001) reduced
Ang1 expression (Ang1; both Wt and Tg mice vs controls and vehicle groups): significantly decreased
Decrease in Ang1 expression, Tg mice compared to Wt animals (Ang1): more significant
COX-2 mRNA decrease (COX-2 [1]; Tg mice vs controls and vehicle groups): 8 fold
COX-2 mRNA decrease (COX-2 [1]; Wt mice vs controls and vehicle groups): 6 fold
NF-κB expression reduction (NF-κB [2]; [12]): 7.6 fold
NF-κB expression reduction (NF-κB [2]; [13]): 4 fold
IL-6 level in tumor tissue (IL-6): 52.06 pg/mL
IL-12 level in tumor tissue (IL-12): 46.73 ± 4.7 pg/mL
Tumor volume compared to cisplatin alone (lung cancer [3]; RvE1 added to cisplatin, both WT and TG animals, p<0.001): significantly and further reduced
Tumor volume compared to the non-treated and WT groups (lung cancer [3]; TG animals treated with cisplatin and additional RvE1): markedly reduced tumor volume
Histological findings in lungs (lung cancer [4]; RvE1 vs control groups): decreased tumor density, vascularization, and inflammatory infiltration with increased necrosis
Number of nodules in the lung over 2 weeks (lung cancer [4]; TG+RvE1 (TG control 8-10)): 3-5 nodules
Survival over 2 weeks (lung cancer [4]; TG+RvE1 (TG control 25%)): 80%
Number of nodules in the lung over 2 weeks (lung cancer [4]; WT+RvE1 (WT control 8-10)): 4-6 nodules
Survival over 2 weeks (lung cancer [4]; WT+RvE1 (WT control 25%)): 40%
IL-1α level in tumor tissue (IL-1α): 177.94 ± 15.7 pg/mL
Microscopic alterations of tumor tissue ([5]; RvE1-treated Wt and Tg animals): extensive necrosis
Necrosis, RvE1 treated Tg mice compared to Wt mice ([5]; Tg vs Wt): more prominent
Signs of toxicity (behavioral changes; eating, drinking habits and movement) (lung cancer [6]): None of the animals exhibited any signs of toxicity
Reduction in the expression of Ki67, RvE1 treated Tg mice compared to Wt mice treated with RvE1 (Ki67; Tg vs Wt): significantly (p<0.01) higher
Ki67-positive cells (Ki67; both Wt and Tg groups vs vehicle and control groups): significant (p<0.001) reduction
Necrosis seen on the surface of tumors, from day ([7]; RvE1 treated groups): 19 days
No tumor ([7]; Tg mice): 3
Tumor developed (number of mice) ([7]; Tg mice): 3
Necrosis ([7]; Tg mice): Started
No tumor ([7]; Wt mice): Weak
Tumor developed (number of mice) ([7]; Wt mice): 4
Necrosis ([7]; Wt mice): Started
Tumor size ([7]; both Wt and Tg animals vs vehicle and control groups, p<0.001): reduced significantly
Body weight ([7]; mouse, in vivo): no significant difference
Signs of toxicity (behavioral changes; eating, drinking habits and movement) ([7]; mouse, in vivo): None of the animals exhibited any signs of toxicity
Tumor appearance ([7]; vs tumors of animals not treated with RvE1 (solid and rigid)): very soft and pulpous
Suppression (reduction) of NF-κB expression compared to cisplatin alone (NF-κB [8]; [14]): increased the suppression
Ang2 expression (Ang2): significantly decreased
Suppression (reduction) of COX-2 expression compared to cisplatin alone (COX-2 [9]; [14]): increased the suppression

N.N.[Cl][Pt][Cl] [cisplatin]
Tumor volume (lung cancer [3]; cisplatin): reduced tumor volume
Decrease of tumor growth compared to control groups (lung cancer [3]; cisplatin, both WT and TG groups): more than 10 fold
Body weight (lung cancer [3]; cisplatin-alone group): lost weight after the first 2 weeks
NF-κB expression (NF-κB [8]; [15]): reduced
COX-2 expression (COX-2 [9]; [15]): reduced

CCCCC[C@H](O)/C=C/C=C\C=C\C=C\[C@@H](O)[C@@H](O)CCCC(=O)O [LXA4, lipoxin A4]
COX-2 expression (COX-2 [10]): significantly decreased
Necrosis, center of the tumor tissue (lung cancer [11]; LXA4-treated group vs WT-vehicle control, 4 weeks): highly necrotic
Inflammatory infiltration (lung cancer [11]; LXA4 group vs vehicle): no sign of inflammatory infiltration
Tumor volume (lung cancer [11]; LXA4 vs vehicle group over 4 weeks): reduced the tumor volume significantly
Body weight (lung cancer [11]; LXA4 vs vehicle, 4 weeks): No change
